# Test results published in patent US8114895B2, “Use of bipyridine compound ‘Caerulomycin A’ derivatives and analogs thereof as immunosuppressive agents” (Council of Science and Industrial Research, priority 2005, dated 2012).
# System: CD4^+ T cells
# Assay: Proliferation of CD4+ T cells obtained from antigen-primed animals
# Type: cell-based
# Conditions: CD4+ T cells from OVA-FCA injected mice, stimulated with antigen-pulsed γ-irradiated splenocytes
# Experimental: A single cell suspension of mice splenocytes obtained from OVA-CFA primed mice. The red blood cells were depleted by treatment with hemolytic Gey's solution. The adherent cells were removed by plating onto plastic Petri plates for 2 h at 37° C. and 7% CO2. The non-adherent cells were loaded (1×10^6 cells/ml) onto the nylon wool column and incubated for 90 min at 37° C. After the incubation period, warm RPMI was passed into the column to elute T lymphocytes. The T cells were washed with RPMI and incubated with anti-Mac3 (TIB-168), anti-IA^d (MKD6), anti-dendritic cell (TIB-227), anti-IgM and anti-CD8 Abs for 45 min at 4° C. […] The purity of the cells was analyzed by flow-cytometry of the cells stained with anti-CD3 and CD4 Abs. […]
# Examples establishing the role of Caerulomycin A [isolated from a novel species of Actinoalloteichus] in inducing immunosuppression based on the following: • Splenocytes of BALB/c mice were stimulated with either ConA (1 μg/ml and 2 μg/ml) or LPS (5 μg/ml and 10 μg/ml) and were cultured with different concentrations of Caerulomycin A (0.0003-0.1 μg/ml). […] Radioactivity incorporated was measured by liquid scintillation counting. • Antigen ovalbumin (100 μg/ml) emulsified in Freund's complete adjuvant was injected in a group consisting of 5 BALB/c mice. […] Radioactivity incorporated was measured by liquid scintillation. […]
smiles,measurement,value
"COc1cc(/C=N/O)nc(-c2ccccn2)c1 [Caerulomycin A, (E)-4-methoxy-2,2′-bipyridine-6-carbaldehyde oxime]",proliferation of antigen stimulated CD4+ T cells,significantly suppressed the proliferation
